Patent US20030135023A1, “Peptide structures useful for competitive modulation of dipeptidyl peptidase IV catalysis” (priority 2001, published 2003)
Where two headings read alike, the source gives them in different places. Square brackets hold non-standard residues; d marks the D form. Peptide text beside a SMILES is read from it. * marks the point of attachment. aIle = CC[C@@H](C)[C@H](N)C(=O)O; Tic = O=C(O)[C@@H]1Cc2ccccc2CN1; Aoc(2) = CCCCCC[C@H](N)C(=O)O; Phg = N[C@H](C(=O)O)c1ccccc1; Tle = CC(C)(C)[C@H](N)C(=O)O; Pip = O=C(O)[C@@H]1CCCCN1; Nle = CCCC[C@H](N)C(=O)O; Orn = NCCC[C@H](N)C(=O)O; Aze = O=C(O)[C@@H]1CCN1; Nva = CCC[C@H](N)C(=O)O; Abu = CC[C@H](N)C(=O)O; Bn = c1ccc(C*)cc1

Columns and labels:
[1] = target: T1, purified porcine DP IV (Sus scrofa, UniProt P22411); experiment: Determination of Ki-values, Gly-Pro-pNA cleavage by DP IV; format: biochemical; settings: Gly-Pro-pNA 0.05-0.4 mM
T1 sequence (P22411 whole entry): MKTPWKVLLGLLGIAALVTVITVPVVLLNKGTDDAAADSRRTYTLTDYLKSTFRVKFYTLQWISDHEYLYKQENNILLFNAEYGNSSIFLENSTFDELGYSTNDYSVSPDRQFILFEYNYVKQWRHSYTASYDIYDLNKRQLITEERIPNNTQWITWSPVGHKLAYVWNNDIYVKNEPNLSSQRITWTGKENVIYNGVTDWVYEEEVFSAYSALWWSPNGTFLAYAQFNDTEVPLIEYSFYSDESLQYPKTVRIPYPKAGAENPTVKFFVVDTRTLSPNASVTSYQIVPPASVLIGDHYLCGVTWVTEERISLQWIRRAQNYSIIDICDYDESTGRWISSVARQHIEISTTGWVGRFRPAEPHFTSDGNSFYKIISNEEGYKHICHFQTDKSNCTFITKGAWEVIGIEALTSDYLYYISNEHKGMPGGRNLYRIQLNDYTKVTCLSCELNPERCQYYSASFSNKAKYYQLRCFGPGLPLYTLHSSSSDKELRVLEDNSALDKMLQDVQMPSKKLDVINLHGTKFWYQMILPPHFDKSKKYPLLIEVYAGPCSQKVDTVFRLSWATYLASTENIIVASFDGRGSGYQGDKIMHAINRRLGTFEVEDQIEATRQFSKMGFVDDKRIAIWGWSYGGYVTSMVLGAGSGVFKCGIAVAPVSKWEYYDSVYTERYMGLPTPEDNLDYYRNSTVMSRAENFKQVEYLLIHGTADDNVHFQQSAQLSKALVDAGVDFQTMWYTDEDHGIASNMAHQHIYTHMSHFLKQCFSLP
Description: (§1) 100 μl inhibitor stock solution were mixed with 100 μl buffer (HEPES pH 7.6) and 50 μl substrate (Gly-Pro-pNA, final concentration 0.4 mM) and preincubated at 30° C. Reaction was started by addition of 20 μl purified porcine DP IV. Formation of the product pNA was measured at 405 nm over 10 min using the HTS 7000 Plus plate reader (Perkin Elmer) and slopes were calculated. The final inhibitor concentrations ranged between 1 mM and 30 nM.
Calculations were performed using the GraFit Software.

[2] = target: T1, purified porcine DP IV; experiment: Determination of IC50-values, Gly-Pro-pNA cleavage by DP IV; format: biochemical; settings: Gly-Pro-pNA 0.4 mM, HEPES pH 7.6, 30° C.; read-out: IC50
Description: as §1
For calculation of IC50-values GraFit 4.0.13 (Erithacus Software) was used.

[3] = system: diabetic Zucker rats (fa/fa); experiment: Oral glucose tolerance test (OGTT) in diabetic Zucker rats; format: in vivo; settings: 100 mg/kg b.w. p.o.; for Improvement of glucose tolerance: AUC test compound vs AUC Control; for AUC test compound (glucose, OGTT): OGTT 2 g/kg glucose
Description: N=30 male Zucker rats (fa/fa), mean age 11 weeks (5-12 weeks), mean body weight 350 g (150-400 g), were purchased from Charles River (Sulzfeld, Germany). They were kept for >12 weeks until all the fatty Zucker rats had the characteristics of manifest Diabetes mellitus.
After overnight fasting, the fatty Zucker rats were given placebo, positive control and test substance, respectively, via feeding tube orally (15 G, 75 mm; Fine Science Tools, Heidelberg, Germany) at −10 min. An oral glucose tolerance test (OGTT) with 2 g/kg b.w. glucose as a 40% solution (B. Braun Melsungen, Melsungen, Germany) was implemented at ±0 min. The glucose was administered via a second feeding tube. Arterial blood samples from the carotid catheter were collected at −30 min, −15 min, ±0 min and at 5, 10, 15, 20, 30, 40, 60, 90 and 120 min into 20 μl glass capillaries, which were placed in standard tubes filled with 1 ml solution for hemolysis (blood glucose measurement).
Blood glucose: Glucose levels were measured using the glucose oxidase procedure (Super G Glukosemeβgerät; Dr. Müller Gerätebau, Freital, Germany).

[4] = target: T2, plasma DP IV (Rattus norvegicus, UniProt P14740); experiment: Plasma DP IV activity after intravasal and oral administration in Wistar rats; format: in vivo; settings: rat, Wistar rats, 100 mg/kg
T2 construct: The assay mixture consisted of 80 μl reagent and 20 μl plasma; from tissue; host or cells: plasma of Wistar rats
T2 sequence (P14740 37-767 limits assumed): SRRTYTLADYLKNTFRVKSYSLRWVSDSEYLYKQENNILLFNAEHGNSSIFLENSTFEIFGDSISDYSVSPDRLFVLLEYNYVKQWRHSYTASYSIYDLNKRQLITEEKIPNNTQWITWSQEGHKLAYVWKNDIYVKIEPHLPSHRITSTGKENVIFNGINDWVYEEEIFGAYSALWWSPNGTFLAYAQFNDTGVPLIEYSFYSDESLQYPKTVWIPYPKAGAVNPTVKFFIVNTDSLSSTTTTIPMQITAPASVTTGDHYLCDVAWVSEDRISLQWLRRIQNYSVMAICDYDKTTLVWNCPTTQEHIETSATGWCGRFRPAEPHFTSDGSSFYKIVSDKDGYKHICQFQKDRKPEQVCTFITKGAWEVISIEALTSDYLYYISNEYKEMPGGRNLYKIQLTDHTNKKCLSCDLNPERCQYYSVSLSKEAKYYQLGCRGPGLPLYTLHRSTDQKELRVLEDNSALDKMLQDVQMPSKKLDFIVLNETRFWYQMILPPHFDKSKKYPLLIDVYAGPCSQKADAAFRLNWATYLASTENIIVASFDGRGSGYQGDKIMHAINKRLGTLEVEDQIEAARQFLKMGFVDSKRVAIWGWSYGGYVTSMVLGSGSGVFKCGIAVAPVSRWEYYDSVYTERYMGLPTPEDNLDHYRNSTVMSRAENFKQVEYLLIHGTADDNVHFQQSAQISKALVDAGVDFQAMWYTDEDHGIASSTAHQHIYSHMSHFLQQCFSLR
Description: Rats with intact catheter function were given the test substances intravasal (intraarterial) or oral, respectively, in random order (N=3 Wistar rats in each group). As positive control, […]. isoleucine thiazolidine*fumarate were administered intravasal.
After overnight fasting, 100 μl samples of heparinized arterial blood were collected at −30, −5, and 0 min into ice-cooled Eppendorf tubes (see below). The test substances were dissolved freshly in 1.0 ml saline (0.154 mol/l) and were given at 0 min either oral via a feeding tube ([…], 75 mm; Fine Science Tools, Heidelberg, Germany) or intravasal. For the intravasal route, the catheter was immediately flushed with 30 μl saline and an additional 1 ml of saline was given orally via the feeding tube.
Arterial blood samples were taken thereafter at 5, 10 (only in a limited number of experiments), 20, 40, 60 and 120 min from the carotid catheter of the conscious unrestrained rats and were always given into ice cooled Eppendorf tubes (Eppendorf-Netheler-Hinz, Hamburg, Germany) filled with 10 μl 1 M citrate buffer pH 3.0 for prevention of further hydrolysis of tripeptides by plasma DP IV activity. Eppendorf tubes were centrifuged immediately (12000 rpm for 2 min, Hettich Zentrifuge EBA 12, Tuttlingen; Germany): The plasma fractions were store on ice until analysis or were deeply frozen at −20 ° C. until analysis.
Plasma DP IV activity: The assay mixture consisted of 80 μl reagent and 20 μl plasma. Kinetic measurements of the formation of the yellow product 4-nitroaniline were performed at 390 nm for 1 min at 30° C. after 2 min pre-incubation at the same temperature. The activity was expressed as arbitrary units [AU] and DP IV activity [mU/ml].
The absolute values of plasma DP IV activity, the relative change of plasma DP IV activity and the time and extent of maximal inhibition were calculated. Data presentation included the presentation of area under the curve (AUC), which was used for evaluation of extent of inhibition of plasma DP IV activity during the two hours of observation. AUC was calculated using the trapezoidal rule.
To compare relative changes of parameters under the conditions of different initial values of DP IV activity an uniform standardised mean (values) was set up at the beginning of the test (see Figures and Tables).
Statistical evaluations were performed with Microsoft Excel® 97. All variables are presented as mean and standard deviation (SD). Treatment groups were compared by Student's t-test, within-group changes by paired t-test. Two-tailed values of p<0.05 were considered significant.

Row | SMILES | Ki [1] | IC50 [2] | other results
1 | CCCCCC[C@H](N)C(=O)N1CCC[C@H]1C(=O)N[C@H](C(=O)O)[C@@H](C)CC [AOA-Pro-Ile, 2-Amino octanoic acid-Pro-Ile] (H-[Aoc(2)]-Pro-Ile-OH) | 12.6 µM | 42.1 µM | –
2 | CC[C@H](N)C(=O)N1CCC[C@H]1C(=O)N[C@H](C(=O)O)[C@@H](C)CC [Abu-Pro-Ile] (H-[Abu]-Pro-Ile-OH; N-terminus and C-terminus assumed) | 8.75 µM | 34.3 µM | –
3 | CC[C@H](C)[C@H](NC(=O)[C@@H]1CCCN1C(=O)[C@@H]1CCN1)C(=O)O [Aze−Pro-Ile, Aze-Pro-Ile] (H-[Aze]-Pro-Ile-OH; N-terminus and C-terminus assumed) | 20.5 µM | 72.8 µM | –
4 | CC[C@H](C)[C@H](N)C(=O)N1CCC[C@H]1C(=O)N[C@H](C(=O)O)C(C)(C)C [Ile-Pro-t-butyl-Gly] (H-Ile-Pro-[Tle]-OH; N-terminus and C-terminus assumed) | 18.9 µM | 82.3 µM | Improvement of glucose tolerance [3]: 5.3%; AUC test compound (glucose, OGTT) [3]: 819.5 mmol·min/L
5 | CC[C@@H](C)[C@H](NC(=O)[C@@H]1CCCN1C(=O)[C@@H](N)[C@@H](C)CC)C(=O)O [Ile−Pro-(allo)Ile, Ile-Pro-allo-Ile] | 5.22 µM | 15.4 µM | –
6 | CCCC[C@H](N)C(=O)N1CCC[C@H]1C(=O)N[C@H](C(=O)O)[C@@H](C)CC [Nle−Pro-Ile, Nle-Pro-Ile] (H-[Nle]-Pro-Ile-OH; N-terminus and C-terminus assumed) | 9.6 µM | 21.9 µM | –
7 | CCC[C@H](N)C(=O)N1CCC[C@H]1C(=O)N[C@H](C(=O)O)[C@@H](C)CC [Nva-Pro-Ile] (H-[Nva]-Pro-Ile-OH; N-terminus and C-terminus assumed) | 6.17 µM | 24.9 µM | –
8 | CC[C@H](C)[C@H](NC(=O)[C@@H]1CCCN1C(=O)[C@@H](N)CCCN)C(=O)O [Orn-Pro-Ile] (H-[Orn]-Pro-Ile-OH; N-terminus and C-terminus assumed) | – | 216 µM | –
9 | CC[C@H](C)[C@H](NC(=O)[C@@H]1CCCN1C(=O)[C@@H](N)c1ccccc1)C(=O)O [Phg-Pro-Ile] (H-[Phg]-Pro-Ile-OH; N-terminus and C-terminus assumed) | – | 154 µM | –
10 | CC[C@H](C)[C@H](NC(=O)[C@@H]1CCCN1C(=O)[C@@H]1CCCCN1)C(=O)O [Pip-Pro-Ile] (H-[Pip]-Pro-Ile-OH; N-terminus and C-terminus assumed) | – | > 100000 µM | –
11 | CC[C@H](C)[C@H](NC(=O)[C@@H]1CCCN1C(=O)[C@@H](N)COCc1ccccc1)C(=O)O [Ser(Bzl)-Pro-Ile] (H-Ser(Bn)-Pro-Ile-OH; N-terminus and C-terminus assumed) | 21.6 µM | 67.8 µM | –
12 | CC[C@H](C)[C@H](NC(=O)[C@@H]1CCCN1C(=O)[C@@H]1Cc2ccccc2CN1)C(=O)O [Tic-Pro-Ile] (H-[Tic]-Pro-Ile-OH; N-terminus and C-terminus assumed) | – | 800 µM | –
13 | CC[C@@H](C)[C@H](NC(=O)[C@@H]1CCCN1C(=O)[C@@H](N)Cc1ccc(O)cc1)C(=O)O [Tyr-Pro-(allo)Ile, Tyr-Pro-allo-Ile] (H-Tyr-Pro-[aIle]-OH; N-terminus and C-terminus assumed) | 18.2 µM | 64.1 µM | –
14 | CC[C@@H](C)[C@H](NC(=O)[C@@H]1CCCN1C(=O)[C@@H](N)C(C)C)C(=O)O [Val-Pro-(allo)Ile, Val-Pro-allo-Ile] | 9.54 µM | 18 µM | –
15 | CC(C)[C@H](N)C(=O)N1CCC[C@H]1C(=O)N[C@H](C(=O)O)C(C)(C)C [Val-Pro-t-butyl-Gly] (H-Val-Pro-[Tle]-OH; N-terminus and C-terminus assumed) | 19.6 µM | – | Improvement of glucose tolerance [3]: 16.5%; AUC test compound (glucose, OGTT) [3]: 722.4 mmol·min/L
16 | CC(C)(C)[C@H](N)C(=O)N1CCC[C@H]1C(=O)NCC(=O)O [t-butyl-Gly-Pro-Gly] (H-[Tle]-Pro-Gly-OH; N-terminus and C-terminus assumed) | 15.1 µM | 56.3 µM | –
17 | CC[C@H](C)[C@H](NC(=O)[C@@H]1CCCN1C(=O)[C@@H](N)C(C)(C)C)C(N)=O [t-butyl-Gly-Pro-Ile-NH2, t-butyl-Gly-Pro-Ile-amide] (H-[Tle]-Pro-Ile-NH2; N-terminus assumed) | 5.6 µM | 22.9 µM | –
18 | CC(C)[C@H](NC(=O)[C@@H]1CCCN1C(=O)[C@@H](N)C(C)(C)C)C(=O)O [t-butyl-Gly-Pro-Val] (H-[Tle]-Pro-Val-OH; N-terminus and C-terminus assumed) | 3.1 µM | 13.8 µM | inhibition at 100 mg/kg ([4]; iv, i.v., read-out: DPIV inhibition at tmax, i.v.): 72%; inhibition at 100 mg/kg ([4]; po, p.o., read-out: DPIV inhibition at tmax, p.o.): 25%
19 | CC(C)(C)[C@H](N)C(=O)N1CCC[C@H]1C(=O)N[C@H](C(=O)O)C(C)(C)C [t-butyl-Gly-Pro-t-butyl-Gly] (H-[Tle]-Pro-[Tle]-OH; N-terminus and C-terminus assumed) | 14.1 µM | 24.5 µM | –
